Source: patent publication US10899747B2, “Biaryl piperidine amide compounds and methods of use thereof” (Athenex, Inc., priority 2017, dated 2021)

test system: IL-2; assay: PHA-IL2 (cell activation and cytokine analysis); format: cell-based; details: 50% inhibition concentration class
In short: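 Cells were seeded in 96-well plates at 1.0-2.0×10^6 cells/ml in 150 ul of RPMI containing 0.5% fetal calf serum. Test compounds, at up to ≤20 uM, were preincubated with the cells for 30 minutes, then phytohemagglutinin (PHA) was added and cultures were stimulated for 24-48 hours at 37 degrees C./5% CO2. Supernatant IL-2 was then quantified by standard ELISA.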

| SMILES | IC50 [nM] |
| --- | --- |
| Cc1cc(F)ncc1-c1ncccc1OCC(=O)N1CCC(CCc2ccccc2)CC1 [Compound 333] | 10000 to 50000 |
| O=C(COc1ccccc1-c1ccc(C(F)(F)F)cc1O)N1CCC(CCc2ccc3c(c2)OCO3)CC1 [Compound 365] | 1000 to 10000 |
| COc1ccc(CCC2CCN(C(=O)C(C)Oc3c(C)cccc3-c3ccccc3)CC2)cc1 (stereo not shown) [Compound 234] | 1000 to 10000 |
| COc1cccc(CCC2CCN(C(=O)COc3ccc(S(=O)(=O)NC(C)C)cc3-c3ccc(F)cc3O)CC2)c1 [Compound 389] | 1000 to 10000 |
| O=C(COc1cccnc1-c1ccc2[nH]ccc2c1)N1CCC(CCc2ccccc2)CC1 [Compound 376] | 1000 to 10000 |
| CCCC(Oc1ccccc1-c1ccccc1)C(=O)N1CCC(CCc2ccc3c(c2)OCO3)CC1 (stereo not shown) [Compound 154] | 10000 to 50000 |
| Cn1ncc2cc(-c3ncccc3OCC(=O)N3CCC(CCc4ccc5c(c4)OCO5)CC3)ccc21 [Compound 375] | 1000 to 10000 |
| CCc1ccc(-c2ccccc2OCC(=O)N2CCC(CCc3ccc4c(c3)OCO4)CC2)cc1 [Compound 156] | 1000 to 10000 |
| COc1cccc(CCC2CCN(C(=O)COc3ccccc3-c3ccc(C(F)(F)F)cc3O)CC2)c1 [Compound 364] | 1000 to 10000 |
| O=C(COc1ncccc1-c1ccc(F)cc1O)N1CCC(CCc2ccc3c(c2)OCO3)CC1 [Compound 329] | 10000 to 50000 |
| CC(Oc1ccccc1-c1ccccc1)C(=O)N1CCC(CCc2ccc3c(c2)OCO3)CC1 (stereo not shown) [Compound 153] | 10000 to 50000 |
| Cc1cc(F)ncc1-c1ccccc1OCC(=O)N1CCC(CCc2ccc3c(c2)OCO3)CC1 [Compound 248] | 10000 to 50000 |
| COc1cccc(CCC2CCN(C(=O)COc3ccccc3-c3ccc4[nH]c(C)nc4c3)CC2)c1 [Compound 387] | 1000 to 10000 |
| O=C(COc1ccccc1-c1ccc2cc[nH]c2c1)N1CCC(CCc2ccc3c(c2)OCCCO3)CC1 [Compound 343] | 10000 to 50000 |
| CC(C)Oc1cccc(-c2ccccc2OCC(=O)N2CCC(CCc3ccc4c(c3)OCO4)CC2)c1 [Compound 243] | 1000 to 10000 |
| N#Cc1cccc(-c2ccccc2OCC(=O)N2CCC(CCc3ccc4c(c3)OCO4)CC2)c1 [Compound 192] | 1000 to 10000 |

| SMILES | IC50 [nM] |
| --- | --- |
| O=C(COc1ccccc1-c1ccc(OC(F)(F)F)cc1)N1CCC(CCc2ccc3c(c2)OCO3)CC1 [Compound 178] | 1000 to 10000 |
| COc1cccc(CCC2CCN(C(=O)CCc3ccccc3-c3ccc(C#N)cc3)CC2)c1 [Compound 227] | 1000 to 10000 |
| O=C1COc2ccc(CCC3CCN(C(=O)COc4ccccc4-c4ccc(F)cc4)CC3)cc2N1 [Compound 258] | 1000 to 10000 |
| O=C(COc1ccccc1-c1ccc(-c2ccccc2)cc1)N1CCC(CCc2ccc3c(c2)OCO3)CC1 [Compound 218] | 1000 to 10000 |
| O=C(COc1ccccc1-c1ccc2c(c1)OCCO2)N1CCC(CCc2ccc3c(c2)OCO3)CC1 [Compound 173] | 1000 to 10000 |
| CCCCOc1cccc(-c2ccccc2OCC(=O)N2CCC(CCc3ccc4c(c3)OCO4)CC2)c1 [Compound 246] | 1000 to 10000 |
| N#Cc1ccc(-c2cc(C(=O)NC3CCOCC3)ccc2OCC(=O)N2CCC(CCc3ccccc3)CC2)cc1 [Compound 368] | 1000 to 10000 |
| N#Cc1ccc(-c2ncccc2OCC(=O)N2CCC(CCc3ccc4c(c3)OCCCO4)CC2)cn1 [Compound 342] | 10000 to 50000 |
| O=C(COc1ccccc1-c1cccc(F)c1)N1CCC(CCc2ccc3c(c2)OCO3)CC1 [Compound 187] | 1000 to 10000 |
| O=C(COc1ccccc1-c1cccc(O)c1)N1CCC(CCc2ccc3c(c2)OCO3)CC1 [Compound 160] | 1000 to 10000 |
| N#Cc1ccc(-c2cc(C(=O)N3CCOCC3)ccc2OCC(=O)N2CCC(CCc3ccccc3)CC2)cc1 [Compound 318] | 1000 to 10000 |
| O=C(COc1ccccc1-c1ccc(F)cc1O)N1CCC(CCc2cccc(OCCN3CCOCC3)c2)CC1 [Compound 355] | 1000 to 10000 |
| NC(=O)c1ccc(-c2ccccc2OCC(=O)N2CCC(CCc3ccc4c(c3)OCO4)CC2)cc1 [Compound 183] | 10000 to 50000 |
| N#Cc1ccc(-c2ncccc2OCC(=O)N2CCC(CCc3ccccc3)CC2)cn1 [Compound 334] | 1000 to 10000 |
| CCc1ccc(OCC(=O)N2CCC(CCc3ccc4c(c3)OCO4)CC2)c(-c2ccc(Cl)nc2)c1 [Compound 275] | 1000 to 10000 |

Further lines, results first:

| IC50 [nM] | SMILES |
| --- | --- |
| < 1000 | CCOc1cccc(-c2ccccc2OCC(=O)N2CCC(CCc3ccc4c(c3)OCO4)CC2)c1 [Compound 206] |
| < 1000 | O=C(COc1ccccc1-c1ccccc1O)N1CCC(CCc2ccc(O)cc2)CC1 [Compound 282] |
| 1000 to 10000 | CC(C)COc1cccc(-c2ccccc2OCC(=O)N2CCC(CCc3ccc4c(c3)OCO4)CC2)c1 [Compound 245] |
| < 1000 | CC(C)Oc1ccccc1CCC1CCN(C(=O)COc2ccccc2-c2ccc(C#N)cc2)CC1 [Compound 427] |
| 1000 to 10000 | N#Cc1ccc(-c2cc(C(N)=O)ccc2OCC(=O)N2CCC(CCc3ccccc3)CC2)cc1 [Compound 321] |
| < 1000 | O=C1COc2ccc(CCC3CCN(C(=O)COc4ccccc4-c4ccc(Cl)nc4)CC3)cc2N1 [Compound 259] |
| < 1000 | N#Cc1ccc(-c2ccccc2OCC(=O)N2CCC(CCc3ccc4c(c3)OCO4)CC2)c(F)c1 [Compound 251] |
| < 1000 | N#Cc1ccc(OCC(=O)N2CCC(CCc3cccc(OC(F)F)c3)CC2)c(-c2ccc(F)cc2O)c1 [Compound 437] |
| 1000 to 10000 | N#Cc1ccc(OCC(=O)N2CCC(CCc3cccc(OCCN4CCOCC4)c3)CC2)c(-c2ccc(F)cc2O)c1 [Compound 354] |
| < 1000 | COc1cccc(CCC2CCN(C(=O)COc3ccccc3-c3ccc4[nH]cnc4c3)CC2)c1 [Compound 371] |
| < 1000 | Cc1cc2c(cc1CCC1CCN(C(=O)COc3ccccc3-c3ccc(C#N)cc3)CC1)OCO2 [Compound 298] |
| < 1000 | O=C(COc1ccccc1-c1ccc(F)cc1O)N1CCC(CCc2cccc(OC(F)F)c2)CC1 [Compound 435] |
| 1000 to 10000 | N#Cc1ccc(-c2ccccc2CCC(=O)N2CCC(CCc3ccc4c(c3)OCO4)CC2)cc1 [Compound 225] |
| 1000 to 10000 | O=C(COc1ccccc1-c1ccncc1)N1CCC(CCc2ccc3c(c2)OCO3)CC1 [Compound 247] |
| < 1000 | O=C(COc1ccccc1-c1ccc(C(F)(F)F)cc1F)N1CCC(CCc2ccc3c(c2)OCO3)CC1 [Compound 237] |
| < 1000 | O=C(COc1ccccc1-c1ccc2[nH]cnc2c1)N1CCC(CCc2cccc3ccccc23)CC1 [Compound 402] |
| < 1000 | NC(=O)c1ccc(OCC(=O)N2CCC(CCc3ccccc3)CC2)c(-c2ccc(F)cc2O)c1 [Compound 320] |
| < 1000 | COC(=O)c1ccc(CCC2CCN(C(=O)COc3ccccc3-c3ccc(C#N)cc3)CC2)cc1 [Compound 290] |
| < 1000 | CC1Oc2ccc(CCC3CCN(C(=O)COc4ccccc4-c4ccc5[nH]ncc5c4)CC3)cc2OC1C (stereo not shown) [Compound 268] |
| < 1000 | COc1cccc(-c2ccccc2OCC(=O)N2CCC(CCc3ccc4c(c3)OCO4)CC2)c1OC [Compound 241] |
| < 1000 | N#Cc1ccc(-c2ccccc2OCC(=O)N2CCC(CCc3ccc4c(c3)OCCO4)CC2)cc1 [Compound 291] |

| IC50 [nM] | SMILES |
| --- | --- |
| < 1000 | N#CCc1ccc(-c2ccccc2OCC(=O)N2CCC(CCc3ccc4c(c3)OCO4)CC2)cc1 [Compound 197] |
| < 1000 | O=C(COc1cccnc1-c1ccc(F)cc1O)N1CCC(CCc2ccc3c(c2)OCCO3)CC1 [Compound 337] |
| < 1000 | CC(Oc1ccccc1-c1ccccc1)C(=O)N1CCC(CCc2ccc3c(c2)OCCCO3)CC1 (stereo not shown) [Compound 209] |
| < 1000 | CC1Oc2ccc(CCC3CCN(C(=O)COc4ccccc4-c4ccc(C#N)cc4)CC3)cc2OC1C (stereo not shown) [Compound 263] |
| < 1000 | COc1cccc(CCC2CCN(C(=O)COc3cccnc3-c3ccc(F)cc3O)CC2)c1 [Compound 350] |
| < 1000 | O=C(C1CC1c1ccccc1-c1ccc(F)cc1O)N1CCC(CCc2ccccc2)CC1 (stereo not shown) [Compound 405] |
| < 1000 | COc1cccc(CCC2CCN(C(=O)COc3ccc(C#N)cc3-c3ccc(F)cc3O)CC2)c1 [Compound 352] |
| < 1000 | O=C(COc1ccccc1-c1ccc(Cl)nc1)N1CCC(CCc2ccccc2)CC1 [Compound 271] |
| < 1000 | N#Cc1ccc(-c2ccccc2OCC(=O)N2CCC(CCc3ccc4c(c3)OCO4)CC2)cc1 [Compound 166] |
| < 1000 | O=C(COc1ccccc1-c1ccc(F)nc1)N1CCC(CCc2ccc3c(c2)OCCCO3)CC1 [Compound 266] |
| < 1000 | O=C(COc1ccccc1-c1ccccc1Cl)N1CCC(CCc2ccc3c(c2)OCO3)CC1 [Compound 165] |
| < 1000 | O=C(COc1ccccc1-c1ccc(Cl)cc1)N1CCC(CCc2ccc3c(c2)OCO3)CC1 [Compound 190] |
| < 1000 | N#Cc1ccc(-c2ccccc2OCC(=O)N2CCC(CCc3cccc(OC(F)F)c3)CC2)cc1 [Compound 434] |
| < 1000 | N#Cc1ccc(-c2ccccc2OCC(=O)N2CCC(CCc3ccc4c(c3)OCCCO4)CC2)cc1 [Compound 231] |
| < 1000 | COCc1ccc(CCC2CCN(C(=O)COc3ccccc3-c3ccc(F)cc3O)CC2)cc1 [Compound 308] |
| < 1000 | N#Cc1ccc(-c2ccccc2OCC(=O)N2CCC(CCc3ccc4c(c3)OCO4)CC2)cn1 [Compound 289] |
| < 1000 | O=C(COc1ccccc1-c1ccc(F)cc1)N1CCC(CCc2ccc(O)cc2)CC1 [Compound 280] |
| < 1000 | O=C(COc1ccccc1-c1ccc(F)cc1)N1CCC(CCc2ccc3c(c2)OCCCO3)CC1 [Compound 230] |
| < 1000 | CCCC(Oc1ccccc1-c1ccccc1)C(=O)N1CCC(CCc2ccc3c(c2)OCCCO3)CC1 (stereo not shown) [Compound 210] |
| < 1000 | O=C(COc1ccccc1-c1ccccc1)N1CCC(CCc2ccc3c(c2)OCCCO3)CC1 [Compound 208] |
| < 1000 | N#Cc1ccc(OCC(=O)N2CCC(CCc3ccccc3)CC2)c(-c2ccc(F)cc2O)c1 [Compound 345] |
